Source: patent US9896423B2, “Deuterium substituted 1-[2-(2,4-dimethyl-phenylsulfanyl)-phenyl]piperazine compound or derivatives thereof, and pharmaceutical composition and use thereof” (Jiangsu Jibeier Pharmaceutical Co. Ltd., priority 2014, dated 2018)
Several values for one entry are separate records, joined by “and”; a condition that tells them apart may be missing. Equal values may be shown once. Where a name gives a salt, the structure may show the parent alone. Read-outs that look alike come from different tables or passages of the source.

Columns and labels:
Male ICR mice [1] = assay: Mice swimming test; format: in vivo; details: for effect on length of time that the mice stopped swimming vs blank control: two successive weeks; for Duration without Movement within the Last 4 min of the Whole 6 min: mice, gavage once a day for 14 days, n = 10, x ± s
From the text: (§1) The following method is used for testing the antidepression effect of the compound of the present application. ICR mice or SD rats, gavaged for two successive weeks, were subjected to mice swimming test, mice tail suspension test and rats swimming test. See below for details of the tests and results.
Male ICR mice weighing 18 g to 20 g were used. They were fed on sterilized standard feed.
The compound administered in the test was 1-{2-[2,4-bis(trideuteriomethyl)phenylsulfanyl]phenyl}piperazine hydrobromic acid salt (XX for short). Vortioxetine (YY for short) was used as a control sample. Venlafaxine HCl (from Wyeth, USA) was used as a positive control.
Vortioxetine (15 mg) was combined with 10% hydroxypropyl-β-cyclodextrin to form a solution of 100 mL and was administered at daily dose of 3 mg/kg. 1-{2-[2,4-bis(trideuteriomethyl)phenylsulfanyl]phenyl}piperazine hydrobromic acid salt (15 mg and 7.5 mg) was combined with 10% hydroxypropyl-β-cyclodextrin to form two solutions of 100 mL and was administered at daily doses of 3 mg/kg and 1.5 mg/kg, respectively. Venlafaxine HCl (75 mg) was combined with 0.5% CMC-Na to form a solution of 100 mL and was administered at daily dose of […].
A recording and analysis system for small-animal behavior (Noldus) was used.
All the eighty mice were subjected to prescreening one day before the administration. The mice, fasted for 4 hours were put in a round glass tank (ø 14 cm×h 20 cm, with water of 10 cm depth and at a temperature of 25° C.) to swim. […] The whole swimming course was recorded by the video and the data were collected and analyzed automatically by Noldus software.
The forty qualified mice were divided into 4 groups, each of which had 10 mice, according to the Excel random grouping.
The medicaments were administered to each group by gavage with the amount of 0.2 ml per 10 g of body weight, once a day for 14 successive days. One hour later after the last oral administration, the mice were allowed to swim for 6 min. The video recorded the whole swimming course, and the Noldus software automatically collected and analyzed the data.
The data was given as “average±standard deviation” (x±s). One-way analysis of variance (one-way ANOVA) was used for data difference statistics. Differences among the groups were determined by P<0.05.

Male ICR mice [2] = assay: Mice tail suspension test; format: in vivo; details: for effect on length of time that the tail-suspended mice stopped moving vs blank control: two successive weeks; for Duration without Move within 6 min: mice tail suspension, gavage 14 days, n = 10, x ± s
From the text: as §1
The animals, medicaments, calculation of dosages to the mice, preparation of drug solution and apparatus are the same as those in the mice swimming test.
The medicaments were correspondingly administered by gavage, once a day, to the animals in the groups for 14 successive days, with the amount of 0.2 ml per 10 g of body weight. The mice were subjected to tail suspension one hour later after the last oral administration. The suspension continued for 6 min.
The data was given as “average±standard deviation” (x±s). One-way analysis of variance (ANOVA) was used for data difference statistics. Differences among the groups were determined by P<0.05.

[3] = Pharmacokinetic test in rats, intravenous injection; format: in vivo, SD rats; details: 2 mg/kg iv; for concentration at 0.05 h / concentration at 0.133 h / concentration at 4 h / concentration at 6 h / concentration at 9 h / concentration at 12 h: male, SD, rat, plasma, intravenous, 2 mg/kg
Protocol: The preferred compound of the present disclosure was assessed in rats for its pharmacokinetic profile.
SD rats, male and female, weighing 150 to 250 g
Mobile phase: 10 mM ammonium formate aqueous solution:methanol=15:85
The ionization source was electrospray ionization source. The detection mode was positive mode. Multiple reaction monitoring (MRM) was used as the scanning mode. The ion reaction for the quantitative analysis was the following: m/z was 305.2\150.0 for XX, and 256.1\167.1 for diphenhydramine (the internal standard).
Four male SD rats were taken. The dosage was calculated as 5 mL/kg body weight and 2 mg/kg. XX or YY was dissolved in DMSO (3% of a total volume) and castor oil (3% of the total volume) was added to the solution, followed by agitating with a vortex mixer. Subsequently, saline was added to the mixture to the total volume to afford the intravenous injection for the rats. The injections were intravenously administered to four male SD rats. Blood from the rats' orbits was collected 3 min, 8 min, 15 min, 30 min, 1 hr, 2 hr, 3 hr, 4 hr, 6 hr, 9 hr, 12 hr and 24 hr later after the injection, respectively.
After the blood collection, the tubes were immediately gently turned upside down at least five times to ensure sufficient mixing, and placed on ice. Heparin was added for anticoagulation. The samples were centrifuged at 8000 rpm for 5 min to separate serum from erythrocyte. The serum was transferred with a pipettor to 2 mL polypropylene (PP) tubes, which were marked with the name of the compound and the time points, and stored in a refrigerator at −40° C. before LC-MS analysis. Samples with high concentrations were diluted with rat blank plasma.
2.5 μL of Meth-H2O and 5 μL of the internal standard solution (20 ng/mL, IS) were added to 50 μL of the plasma. Subsequently, 150 μL of methanol was added to the mixture to precipitate protein and the samples were then centrifuged at 13000 rpm for 5 min. The upper organic phase was taken out, filtrated with a 0.22 μM microporous membrane, and 2 μL of the sample was injected for the LC-MS analysis.

For `[2H]C([2H])([2H])c1ccc(Sc2ccccc2N2CCNCC2)c(C([2H])([2H])[2H])c1` [XX, 1-{2-[2,4-bis(trideuteriomethyl)phenylsulfanyl]phenyl}piperazine hydrobromic acid salt], which “effect on length of time that the mice stopped swimming vs blank control” value (Male ICR mice [1]; 1.5 mg/kg gavage) is on record?
The value was “markedly shortened”.

And the “effect on length of time that the mice stopped swimming vs blank control” value (Male ICR mice [1]; 3 mg/kg gavage)?
Its value is “markedly shortened”.

And the “Duration without Movement within the Last 4 min of the Whole 6 min” value (Male ICR mice [1]; 1.5 mg/kg)?
The value was 173.4 ± 36.1 s.

What about the “Duration without Movement within the Last 4 min of the Whole 6 min” value (Male ICR mice [1]; 3 mg/kg) of the same compound?
The value was 176.3 ± 37.5 s.

And the “effect on length of time that the tail-suspended mice stopped moving vs blank control” value (Male ICR mice [2]; 1.5 mg/kg gavage)?
Its value is “showed a tendency to shorten”.

What about the “effect on length of time that the tail-suspended mice stopped moving vs blank control” value (Male ICR mice [2]; 3 mg/kg gavage) of the same compound?
The value was “markedly shortened”.

And the “Duration without Move within 6 min” value (Male ICR mice [2]; 1.5 mg/kg)?
Its value is 212.6 ± 54.9 s.

And the “Duration without Move within 6 min” value (Male ICR mice [2]; 3 mg/kg)?
The value was 152.9 ± 35.4 s.

What about the “Concentrations in Plasma of Rats after Intravenous Injection” value (shortened to “Concentrations in Plasma of Rats”) ([3]; 0.05 h after administration, individual rats) of the same compound?
The value was 123.2 ng/mL and 127.2 ng/mL and 121.4 ng/mL.

What about the “Concentrations in Plasma of Rats” value ([3]; 0.133 h, individual rats) of the same compound?
Its value is 89.0 ng/mL and 85.9 ng/mL and 86.8 ng/mL.

What about the “Concentrations in Plasma of Rats” value ([3]; 0.25 h, individual rats) of the same compound?
Its value is 78.8 ng/mL and 77.3 ng/mL and 77.1 ng/mL.

And the “Concentrations in Plasma of Rats” value ([3]; 0.5 h, individual rats)?
The value was 76.9 ng/mL and 71.3 ng/mL and 75.8 ng/mL.

And the “Concentrations in Plasma of Rats” value ([3]; 1 h, individual rats)?
The value was 73.3 ng/mL and 68.6 ng/mL and 65.6 ng/mL.

What about the “Concentrations in Plasma of Rats” value ([3]; 2 h, individual rats) of the same compound?
The value was 69.5 ng/mL and 68.1 ng/mL and 54.4 ng/mL.

And the “Concentrations in Plasma of Rats” value ([3]; 3 h, individual rats)?
The value was 53.4 ng/mL and 49.8 ng/mL and 38.2 ng/mL.

What about the “Concentrations in Plasma of Rats” value ([3]; 4 h, individual rats) of the same compound?
Its value is 38.5 ng/mL and 27.6 ng/mL and 25.1 ng/mL.

And the “Concentrations in Plasma of Rats” value ([3]; 6 h, individual rats)?
Its value is 28.4 ng/mL and 25.8 ng/mL and 24.5 ng/mL.

What about the “Concentrations in Plasma of Rats” value ([3]; 9 h, individual rats) of the same compound?
The value was 16.1 ng/mL and 18.6 ng/mL and 14.1 ng/mL.

What about the “Concentrations in Plasma of Rats” value ([3]; 12 h, individual rats) of the same compound?
Its value is 7.86 ng/mL and 7.50 ng/mL and 7.18 ng/mL.

And the “Concentrations in Plasma of Rats” value ([3]; 24 h, individual rats)?
Its value is 2.57 ng/mL and 2.89 ng/mL and 3.68 ng/mL.

And the concentration at 0.05 h ([3]; 0.05 h, mean, read-out: Concentrations in Plasma of Rats after Intravenous Injection, Mean ± SD)?
Its concentration at 0.05 h is 126 ± 5.68 ng/mL.

What about the concentration at 0.05 h ([3]; 0.05 h after administration, individual rats, read-out: Concentrations in Plasma of Rats after Intravenous Injection) of the same compound?
Its concentration at 0.05 h is 134 ng/mL.

And the concentration at 0.133 h ([3]; 0.133 h, individual rats, read-out: Concentrations in Plasma of Rats after Intravenous Injection)?
The concentration at 0.133 h was 86.5 ng/mL.

What about the concentration at 0.133 h ([3]; 0.133 h, mean, read-out: Concentrations in Plasma of Rats after Intravenous Injection, Mean ± SD) of the same compound?
Its concentration at 0.133 h is 87.1 ± 1.35 ng/mL.

And the concentration at 4 h ([3]; 4 h, individual rats, read-out: Concentrations in Plasma of Rats after Intravenous Injection)?
Its concentration at 4 h is 27.2 ng/mL.

And the concentration at 4 h ([3]; 4 h, mean, read-out: Concentrations in Plasma of Rats after Intravenous Injection, Mean ± SD)?
Its concentration at 4 h is 29.6 ± 6.03 ng/mL.

And the concentration at 6 h ([3]; 6 h, individual rats, read-out: Concentrations in Plasma of Rats after Intravenous Injection)?
Its concentration at 6 h is 25.8 ng/mL.

What about the concentration at 6 h ([3]; 6 h, mean, read-out: Concentrations in Plasma of Rats after Intravenous Injection, Mean ± SD) of the same compound?
The concentration at 6 h was 26.1 ± 1.64 ng/mL.

What about the concentration at 9 h ([3]; 9 h, individual rats, read-out: Concentrations in Plasma of Rats after Intravenous Injection) of the same compound?
The concentration at 9 h was 14.9 ng/mL.

And the concentration at 9 h ([3]; 9 h, mean, read-out: Concentrations in Plasma of Rats after Intravenous Injection, Mean ± SD)?
Its concentration at 9 h is 15.9 ± 1.96 ng/mL.

And the concentration at 12 h ([3]; 12 h, individual rats, read-out: Concentrations in Plasma of Rats after Intravenous Injection)?
Its concentration at 12 h is 8.44 ng/mL.

And the concentration at 12 h ([3]; 12 h, mean, read-out: Concentrations in Plasma of Rats after Intravenous Injection, Mean ± SD)?
The concentration at 12 h was 7.75 ± 0.54 ng/mL.
